Experiments:
Cer1 = settings: cited from earlier work
human Cer1 = target: T1, human Cer1 (Homo sapiens, UniProt P27544); settings: cited from earlier work
T1 sequence (P27544 1-350): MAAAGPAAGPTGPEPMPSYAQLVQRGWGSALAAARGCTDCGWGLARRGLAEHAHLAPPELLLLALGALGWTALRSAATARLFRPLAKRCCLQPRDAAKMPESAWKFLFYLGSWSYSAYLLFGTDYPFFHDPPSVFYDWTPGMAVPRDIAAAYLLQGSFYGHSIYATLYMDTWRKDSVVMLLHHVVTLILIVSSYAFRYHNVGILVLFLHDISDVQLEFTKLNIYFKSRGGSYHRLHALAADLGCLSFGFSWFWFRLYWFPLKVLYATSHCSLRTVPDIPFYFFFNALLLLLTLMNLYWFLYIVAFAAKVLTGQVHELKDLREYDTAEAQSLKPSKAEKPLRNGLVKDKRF

Pma1 = assay: Glucose dependent medium acidification (plasma membrane H+-ATPase activity); assay type: cell-based, Cryptococcus neoformans
Method: Glucose-dependent medium acidification was monitored by a modification of a procedure described previously (Perlin, Brown et al. 1988, Soteropoulos, Vaz et al. 2000). Cultures of Cn strain WT, Δcer1, Δcer1+CER1, Δgcs1 were grown to mid-log Phase in YPD. The next day, these cells were transferred to DMEM at pH 4.0 and allowed to grow under shaking conditions for 24 hours. These cells were then harvested and washed using 100 mM KCl, pH 5.0. These pellets were then resuspended in 10 ml KCl, pH 5.0 and incubated under shaking condition at 30° C. These samples were then stored at 4° C. overnight prior to use. For the assay, cells were concentrated to a final A590 of approximately 2.0. 20 μl cells along with 155 μl of bromophenolblue (50 μg/ml) in 100 mM KCl, pH 5.0. 20 μl 20% (w/v) glucose was added to initiate the reaction. Medium acidification was monitored at 590 nm over a period of 5 hours (data point every 3 mins) in a microplate reader (SpectraMax M5).

GAL7::IPC1 = assay: In vitro growth at 37° C., 5% CO2, pH 4.0; assay type: cell-based, Cryptococcus neoformans; settings: supplementation

SMILES | known Cer1 inhibitor (Cer1) | targets human Cer1 (human Cer1) | Pma1 activity (Pma1; AbA treated Δgcs1 cells, supplementation) | Pma1 efficiency (Pma1; Δcer1 cells upon supplementation) | growth defect of GAL7::IPC1 in acidic conditions (GAL7::IPC1)
CCCCCC[C@@H](C)C1=C(O)C(=O)[C@@H]2[C@H](O)[C@H](C)C[C@H](O)[C@H]2[C@]1(C)C(=O)/C=C\O [Australifungin] | known Cer1 inhibitor | targets human Cer1 |  |  | 
CCCCCCCCCCCCC/C=C/[C@@H](O)[C@H](CO)NC(=O)CCCCCCCCCCCCCCCCC [C18 ceramide] |  |  | increases | increase | compensated
